Results published in US12065654B2, “Plants having increased tolerance to herbicides” (BASF SE, priority 2014, dated 2024).

Tests used:
Picrophilus HPPD = test: HPPD activity assay; assay type: biochemical, Picrophilus torridus; conditions: HPPD enzyme Picrophilus
Method: (§1) The activity assay for HPPD is based on the analysis of homogentisic acid by reversed phase HPLC.
(§2) The assay mixture can contain 150 mM potassium phosphate buffer pH 7.0, 50 mM L-ascorbic acid, 100 μM Catalase (Sigma-Aldrich), 1 μM FeSO4 and 0.2 units of purified HPPD enzyme in a total volume of 505 μl. 1 unit is defined as the amount of enzyme that is required to produce 1 nmol of HGA per minute at 20° C.
(§3) The reaction is allowed to proceed for 45 min at room temperature. The reaction is stopped by the addition of 50 μl of 4.5 M phosphoric acid. The sample is filtered using a […] pore size PVDF filtration device. 5 μl of the cleared sample is analyzed on an UPLC HSS T3 column (particle size 1.8 μm, dimensions 2, 1×50 mm; Waters) by isocratic elution using 90% 20 mM NaH2PO4 pH 2.2, 10% methanol (v/v).
(§4) HGA is detected electrochemically at 750 mV (mode: DC; polarity: positive) and quantified by integrating peak areas (Empower software; Waters).
(§5) Inhibitors are dissolved in DMSO (dimethylsulfoxide) to a concentration of 0.5 mM. From this stock solution serial five-fold dilutions are prepared in DMSO, which are used in the assay. The respective inhibitor solution accounts for 1% of the assay volume. Thus, final inhibitor concentrations range from 5 μM to 320 pM, respectively. Activities are normalized by setting the uninhibited enzyme activity to 100%. IC50 values are calculated using non-linear regression.
(§6) Using methods which are described in the above examples or well known in the art, purified recombinant wild-type HPPD enzymes are characterized with respect to their kinetic properties and sensitivity towards HPPD inhibiting herbicides. Apparent michaelis constants (Km) and maximal reaction velocities (Vmax) are calculated by non-linear regression with the software GraphPad Prism 5 (GraphPad Software, La Jolla, USA) using a substrate inhibition model. […] Weighted means (by standard error) of Km and IC50 values are calculated from at least three independent experiments. The Cheng-Prusoff equation for competitive inhibition (Cheng, Y. C.; Prusoff, W. H. Biochem Pharmacol 1973, 22, 3099-3108) is used to calculate dissociation constants (Ki).
(§7) Field performance of the HPPD enzyme, which is used as a herbicide tolerance trait may depend not only on its lack of sensitivity towards HPPD inhibiting herbicides but also on its activity. To assess the potential performance of a herbicide tolerance trait a tolerance index (TI) is calculated using the following formula: […]
(§8) Easy comparison and ranking of each trait is enabled by normalizing tolerance indexes on Arabidopsis wild-type HPPD.

[1] = biological target: T1, Arabidopsis HPPD M335H, P336A, E363Q (Arabidopsis thaliana, UniProt P93836, E363Q/M335H/P336A); assay type: biochemical; conditions: Arabidopsis HPPD variant M335H, normalized on wild-type;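 note: reaction started with 4-HPP at 0.05 mM after 30 min preincubation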
T1 construct: His6 (N); made in house; host or cells: E. coli BL21 (DE3)
T1 sequence (P93836 whole entry M335H/P336A/E363Q): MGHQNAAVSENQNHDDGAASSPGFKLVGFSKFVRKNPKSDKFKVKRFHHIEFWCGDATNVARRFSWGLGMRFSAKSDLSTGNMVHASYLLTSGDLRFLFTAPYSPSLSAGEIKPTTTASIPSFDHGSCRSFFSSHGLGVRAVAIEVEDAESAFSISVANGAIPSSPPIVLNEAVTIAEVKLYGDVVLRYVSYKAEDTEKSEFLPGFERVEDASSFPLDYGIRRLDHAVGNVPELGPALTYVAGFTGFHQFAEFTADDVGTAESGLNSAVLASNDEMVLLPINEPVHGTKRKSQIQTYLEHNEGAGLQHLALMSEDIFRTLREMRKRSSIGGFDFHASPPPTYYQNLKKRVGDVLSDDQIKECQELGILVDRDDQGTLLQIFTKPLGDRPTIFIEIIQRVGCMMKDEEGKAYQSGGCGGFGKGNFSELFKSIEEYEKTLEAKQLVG
Method: as §1, §2, §3, §4, §5
(§9) Purified, mutant HPPD enzymes are obtained by the methods described above. Dose response and kinetic measurements are carried out using the described HPPD activity assay. Apparent michaelis constants (Km) and maximal reaction velocities (Vmax) are calculated by non-linear regression with the software GraphPad Prism 5 (GraphPad Software, La Jolla, USA) using a substrate inhibition model. […] Weighted means (by standard error) of K. and IC50 values are calculated from at least three independent experiments. The Cheng-Prusoff equation for competitive inhibition (Cheng, Y. C.; Prusoff, W. H. Biochem Pharmacol 1973, 22, 3099-3108) is used to calculate dissociation constants (Ki).
(§10) Field performance of the optimized HPPD enzyme, which is used as a herbicide tolerance trait may depend not only on its lack of sensitivity towards HPPD inhibiting herbicides but also on its activity. To assess the potential performance of a herbicide tolerance trait a tolerance index (TI) is calculated using the following formula: […]
(§11) Easy comparison and ranking of each trait is enabled by normalizing tolerance indexes on the respective wild-type HPPD.

Arabidopsis HPPD F381I = biological target: T2, Arabidopsis HPPD F381I (Arabidopsis thaliana, UniProt P93836, F381I); assay type: biochemical; conditions: Arabidopsis HPPD variant F381I; normalized on wild-type;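 note: reaction started with 4-HPP at 0.05 mM after 30 min preincubation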
T2 construct: His6 (N); made in house; host or cells: E. coli BL21 (DE3)
T2 sequence (P93836 whole entry F381I): as the sequence (P93836 whole entry M335H/P336A/E363Q) above, with H335M, A336P, Q363E, F381I counted along it
Method: as §1, §2, §3, §4, §5, §9, §10, §11

[2] = biological target: T3, Arabidopsis HPPD M335H, P336A (Arabidopsis thaliana, UniProt P93836, M335H/P336A); assay type: biochemical; conditions: Arabidopsis HPPD variant M335H, normalized on wild-type;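 note: reaction started with 4-HPP at 0.05 mM after 30 min preincubation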
T3 construct: His6 (N); made in house; host or cells: E. coli BL21 (DE3)
T3 sequence (P93836 whole entry M335H/P336A): as the sequence (P93836 whole entry M335H/P336A/E363Q) above, with Q363E counted along it
Method: as §1, §2, §3, §4, §5, §9, §10, §11

[3] = biological target: T4, Arabidopsis HPPD M335H, P336G, E363Q (Arabidopsis thaliana, UniProt P93836, E363Q/M335H/P336G); assay type: biochemical; conditions: Arabidopsis HPPD variant M335H, normalized on wild-type
T4 construct: His6 (N); made in house; host or cells: E. coli BL21 (DE3)
T4 sequence (P93836 whole entry M335H/P336G/E363Q): as the sequence (P93836 whole entry M335H/P336A/E363Q) above, with A336G counted along it
Method: as §1, §2, §3, §4, §5, §9, §10, §11

Arabidopsis HPPD F381L = biological target: T5, Arabidopsis HPPD F381L (Arabidopsis thaliana, UniProt P93836, F381L); assay type: biochemical; conditions: Arabidopsis HPPD variant F381L; normalized on wild-type
T5 construct: His6 (N); made in house; host or cells: E. coli BL21 (DE3)
T5 sequence (P93836 whole entry F381L): as the sequence (P93836 whole entry M335H/P336A/E363Q) above, with H335M, A336P, Q363E, F381L counted along it
Method: as §1, §2, §3, §4, §5, §9, §10, §11

[4] = biological target: T6, Arabidopsis HPPD M335H, P336G (Arabidopsis thaliana, UniProt P93836, M335H/P336G); assay type: biochemical; conditions: Arabidopsis HPPD variant M335H, normalized on wild-type
T6 construct: His6 (N); made in house; host or cells: E. coli BL21 (DE3)
T6 sequence (P93836 whole entry M335H/P336G): as the sequence (P93836 whole entry M335H/P336A/E363Q) above, with A336G, Q363E counted along it
Method: as §1, §2, §3, §4, §5, §9, §10, §11

[5] = biological target: T7, Hordeum HPPD (SEQ ID NO:2) (Hordeum vulgare, UniProt O48604, A164G/R146V/R147D/R148G); test: HPPD activity assay; assay type: biochemical; conditions: for Normalized tolerance index (TI): Hordeum HPPD variant Wild-type (reference, SEQ ID NO: 2); for TI (tolerance index): Hordeum HPPD, not normalized
T7 construct: His-tag (N); made in house; host or cells: E. coli BL21 (DE3)
T7 sequence (O48604 whole entry R146V/R147D/R148G/A164G): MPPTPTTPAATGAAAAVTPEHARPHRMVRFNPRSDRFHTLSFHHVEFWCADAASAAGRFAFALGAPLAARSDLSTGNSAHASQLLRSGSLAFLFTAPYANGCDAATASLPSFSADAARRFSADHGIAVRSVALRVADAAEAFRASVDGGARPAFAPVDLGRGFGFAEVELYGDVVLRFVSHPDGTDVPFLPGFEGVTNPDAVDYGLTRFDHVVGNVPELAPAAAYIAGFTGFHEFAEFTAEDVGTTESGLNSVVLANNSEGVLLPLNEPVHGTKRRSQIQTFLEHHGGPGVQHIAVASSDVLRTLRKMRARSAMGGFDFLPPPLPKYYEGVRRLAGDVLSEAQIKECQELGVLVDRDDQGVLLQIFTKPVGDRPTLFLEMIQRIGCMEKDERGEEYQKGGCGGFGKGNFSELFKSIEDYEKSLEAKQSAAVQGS
Method: as §1, §2, §3, §4, §5, §6, §7, §8

Rhodococcus HPPD2 = test: HPPD activity assay; assay type: biochemical; conditions: HPPD enzyme Rhodococcus HPPD2
Method: as §1, §2, §3, §4, §5, §6, §7, §8

Kordia HPPD = test: HPPD activity assay; assay type: biochemical; conditions: HPPD enzyme Kordia
Method: as §1, §2, §3, §4, §5, §6, §7, §8

Rhodococcus HPPD1 = test: HPPD activity assay; assay type: biochemical; conditions: HPPD enzyme Rhodococcus HPPD1
Method: as §1, §2, §3, §4, §5, §6, §7, §8

Synechococcus HPPD = test: HPPD activity assay; assay type: biochemical; conditions: HPPD enzyme Synechococcus
Method: as §1, §2, §3, §4, §5, §6, §7, §8

Lolium HPPD = test: HPPD activity assay; assay type: biochemical; conditions: HPPD enzyme Lolium
Method: as §1, §2, §3, §4, §5, §6, §7, §8

SMILES	TI normalized to Arabidopsis HPPD (Picrophilus HPPD)	Normalized tolerance index (TI) [1]	Normalized tolerance index (TI) (Arabidopsis HPPD F381I)	Normalized tolerance index (TI) [2]	Normalized tolerance index (TI) [3]	Normalized tolerance index (TI) (Arabidopsis HPPD F381L)	Normalized tolerance index (TI) [4]	Ki [5]	Normalized tolerance index (TI) [5]	TI (tolerance index) [5]	TI normalized to Arabidopsis HPPD (Rhodococcus HPPD2)	TI normalized to Arabidopsis HPPD (Kordia HPPD)	TI normalized to Arabidopsis HPPD (Rhodococcus HPPD1)	TI normalized to Arabidopsis HPPD (Synechococcus HPPD)	TI normalized to Arabidopsis HPPD (Lolium HPPD)
CS(=O)(=O)c1ccc(C(=O)C2C(=O)CCCC2=O)c([N+](=O)[O-])c1 [Inhibitor 2, 2-(4-methylsulfonyl-2-nitro-benzoyl)cyclohexane-1,3-dione]	0.2	0.3	0.1	0.1	0.1	0.1	0.1	73 nM	1	3.2E−2	0.3	0.1	0.3	2.1	2.6
Cc1c(C(=O)c2cnn(C)c2O)ccc(S(C)(=O)=O)c1C1=NOCC1 [Inhibitor 1, [3-(4,5-dihydroisoxazol-3-yl)-2-methyl-4-methylsulfonyl-phenyl]-(5-hydroxy-1-methyl-pyrazol-4-yl)methanone]	10.4	6.4	10.8	3.4	3	11	5	7.9 nM	1	3.5E−3	19.3	3.2	18.9	6.7	1.7
CS(=O)(=O)c1ccc(C(=O)C2C(=O)CCCC2=O)c(Cl)c1COCC(F)(F)F [Inhibitor 4, 2-[2-chloro-4-methylsulfonyl-3-(2,2,2-trifluoroethoxymethyl)benzoyl]cyclohexane-1,3-dione]	0.4	0.3	0.1	0.1	0.1	0.1	0.2		1		0.5	0.1	0.6	0.1	2.6
COCCOCc1nc(C(F)(F)F)ccc1C(=O)C1=C(O)C2CCC(C2)C1=O (centres unmarked) [Inhibitor 3, 2-hydroxy-3-[2-(2-methoxyethoxymethyl)-6-(trifluoromethyl)pyridine-3-carbonyl]bicyclo[3.2.1]oct-2-en-4-one]	7.8	0.5	0.1	0.1	0.1	0.1	0.3		1		1.3	0.3	1.2	0.0	2.5
